Consider nine compounds from the NIST ThermoML archive (doi:10.1016/j.jct.2012.08.030).

Numbers after ± are expanded uncertainties.

The first data set is described as follows: refractive index (Na D-line) (dimensionless). Particulars: 308.15 K; 101.33 kPa; Liquid; Standard Abbe refractometry.
In the case of `CC(C)O` [propan-2-ol], the refractive index is reported as 1.37093 ± 0.00033.

The data set is the same for the next values; noted with them: 313.15 K; 101.33 kPa; Liquid; Standard Abbe refractometry.
Regarding `CCCCn1cc[n+](C)c1.COS(=O)(=O)[O-]` [1-butyl-3-methylimidazolium methyl sulfate], the refractive index turned out to be 1.47443 ± 0.00068.

Consider `CCCCO` [butan-1-ol], for which the refractive index is 1.39138 ± 0.00037.

As to `CO` [methanol], the refractive index was 1.32171 ± 0.00031.

Regarding `CCCO` [propan-1-ol], the refractive index came to 1.37722 ± 0.00033.

Consider `CC(C)O` [propan-2-ol], for which the refractive index is given as 1.3687 ± 0.00033.

Another data set in a line: xn = mol fraction of the nth substance listed. Particulars: 298.15 K; 101.3 kPa; Liquid; Sing-around technique in a fixed-path interferometer; x2 = 0.
Consider `CCCCO` [butan-1-ol] + CCCCn1cc[n+](C)c1.COS(=O)(=O)[O-], for which the speed of sound came to 1239.3 ± 1.2 m/s.

On to `CO` [methanol] + CCCCn1cc[n+](C)c1.COS(=O)(=O)[O-], for which the speed of sound is reported as 1104.3 ± 0.59 m/s.

Take `CCCO` [propan-1-ol] + CCCCn1cc[n+](C)c1.COS(=O)(=O)[O-]: the speed of sound was found to be 1205.9 ± 0.8 m/s.

With `CC(C)O` [propan-2-ol] + CCCCn1cc[n+](C)c1.COS(=O)(=O)[O-], the speed of sound came out at 1138.7 ± 0.78 m/s.

Staying with this data set, now noted: 298.15 K; 101.3 kPa; Liquid; Vibrating tube method; x2 = 0.
In the case of `CCCCO` [butan-1-ol] + CCCCn1cc[n+](C)c1.COS(=O)(=O)[O-], the mass density came to 805.93 ± 0.24 kg/m3.

In the case of `CO` [methanol] + CCCCn1cc[n+](C)c1.COS(=O)(=O)[O-], the mass density was determined as 787.405 ± 0.12 kg/m3.

Take `CCCO` [propan-1-ol] + CCCCn1cc[n+](C)c1.COS(=O)(=O)[O-]: the mass density is recorded as 800.008 ± 0.14 kg/m3.

Consider `CC(C)O` [propan-2-ol] + CCCCn1cc[n+](C)c1.COS(=O)(=O)[O-], for which the mass density came out at 781.123 ± 0.15 kg/m3.

Still in this data set, the particulars now being: 303.15 K; 101.3 kPa; Liquid; Sing-around technique in a fixed-path interferometer; x2 = 0.
Turning to `CCCCO` [butan-1-ol] + CCCCn1cc[n+](C)c1.COS(=O)(=O)[O-], the speed of sound worked out at 1222.9 ± 1.2 m/s.

For `CO` [methanol] + CCCCn1cc[n+](C)c1.COS(=O)(=O)[O-], the speed of sound is on record as 1088.3 ± 0.59 m/s.

Consider `CCCO` [propan-1-ol] + CCCCn1cc[n+](C)c1.COS(=O)(=O)[O-], for which the speed of sound stood at 1189.3 ± 0.8 m/s.

With `CC(C)O` [propan-2-ol] + CCCCn1cc[n+](C)c1.COS(=O)(=O)[O-], the speed of sound worked out at 1121.4 ± 0.78 m/s.

The same data set, now with this note: 303.15 K; 101.3 kPa; Liquid; Vibrating tube method; x2 = 0.
Consider `CCCCO` [butan-1-ol] + CCCCn1cc[n+](C)c1.COS(=O)(=O)[O-], for which the mass density amounted to 802.088 ± 0.24 kg/m3.

As for `CO` [methanol] + CCCCn1cc[n+](C)c1.COS(=O)(=O)[O-], the mass density is given as 782.688 ± 0.12 kg/m3.

For `CCCO` [propan-1-ol] + CCCCn1cc[n+](C)c1.COS(=O)(=O)[O-], the mass density is 795.97 ± 0.14 kg/m3.

For the compound `CC(C)O` [propan-2-ol] + CCCCn1cc[n+](C)c1.COS(=O)(=O)[O-], the mass density is given as 776.845 ± 0.15 kg/m3.

Staying with this data set, now noted: 308.15 K; 101.3 kPa; Liquid; Sing-around technique in a fixed-path interferometer; x2 = 0.
In the case of `CCCCO` [butan-1-ol] + CCCCn1cc[n+](C)c1.COS(=O)(=O)[O-], the speed of sound amounted to 1206.3 ± 1.2 m/s.

For `CO` [methanol] + CCCCn1cc[n+](C)c1.COS(=O)(=O)[O-], the speed of sound was 1072 ± 0.58 m/s.

For `CCCO` [propan-1-ol] + CCCCn1cc[n+](C)c1.COS(=O)(=O)[O-], the speed of sound is given as 1172.4 ± 0.79 m/s.

Take `CC(C)O` [propan-2-ol] + CCCCn1cc[n+](C)c1.COS(=O)(=O)[O-]: the speed of sound came out at 1103.9 ± 0.77 m/s.

Staying with this data set, now noted: 308.15 K; 101.3 kPa; Liquid; Vibrating tube method; x2 = 0.
On to `CCCCO` [butan-1-ol] + CCCCn1cc[n+](C)c1.COS(=O)(=O)[O-], for which the mass density was determined as 798.214 ± 0.24 kg/m3.

As for `CO` [methanol] + CCCCn1cc[n+](C)c1.COS(=O)(=O)[O-], the mass density came to 777.941 ± 0.12 kg/m3.

With `CCCO` [propan-1-ol] + CCCCn1cc[n+](C)c1.COS(=O)(=O)[O-], the mass density was 791.892 ± 0.14 kg/m3.

Regarding `CC(C)O` [propan-2-ol] + CCCCn1cc[n+](C)c1.COS(=O)(=O)[O-], the mass density was found to be 772.487 ± 0.15 kg/m3.

The same data set, now with this note: 313.15 K; 101.3 kPa; Liquid; Sing-around technique in a fixed-path interferometer; x2 = 0.
Consider `CCCCO` [butan-1-ol] + CCCCn1cc[n+](C)c1.COS(=O)(=O)[O-], for which the speed of sound was 1189.7 ± 1.2 m/s.

Consider `CO` [methanol] + CCCCn1cc[n+](C)c1.COS(=O)(=O)[O-], for which the speed of sound came out at 1055.9 ± 0.58 m/s.

For the compound `CCCO` [propan-1-ol] + CCCCn1cc[n+](C)c1.COS(=O)(=O)[O-], the speed of sound is reported as 1155.5 ± 0.79 m/s.

With `CC(C)O` [propan-2-ol] + CCCCn1cc[n+](C)c1.COS(=O)(=O)[O-], the speed of sound is recorded as 1086.6 ± 0.77 m/s.

The data set is the same for the next values; noted with them: 313.15 K; 101.3 kPa; Liquid; Vibrating tube method; x2 = 0.
Turning to `CCCCO` [butan-1-ol] + CCCCn1cc[n+](C)c1.COS(=O)(=O)[O-], the mass density amounted to 794.301 ± 0.24 kg/m3.

Regarding `CO` [methanol] + CCCCn1cc[n+](C)c1.COS(=O)(=O)[O-], the mass density stood at 773.168 ± 0.12 kg/m3.

As for `CCCO` [propan-1-ol] + CCCCn1cc[n+](C)c1.COS(=O)(=O)[O-], the mass density stood at 787.772 ± 0.14 kg/m3.

For the compound `CC(C)O` [propan-2-ol] + CCCCn1cc[n+](C)c1.COS(=O)(=O)[O-], the mass density was 768.053 ± 0.15 kg/m3.

A short description of a further data set: refractive index (Na D-line) (dimensionless); xn = mol fraction of the nth substance listed. Conditions: 298.15 K; 101.3 kPa; Liquid; Standard Abbe refractometry; x2 = 0.
As for `CCCCO` [butan-1-ol] + CCCCn1cc[n+](C)c1.COS(=O)(=O)[O-], the refractive index was found to be 1.39747 ± 0.00037.

Turning to `CO` [methanol] + CCCCn1cc[n+](C)c1.COS(=O)(=O)[O-], the refractive index worked out at 1.3272 ± 0.00031.

With `CCCO` [propan-1-ol] + CCCCn1cc[n+](C)c1.COS(=O)(=O)[O-], the refractive index is 1.38334 ± 0.00033.

As to `CC(C)O` [propan-2-ol] + CCCCn1cc[n+](C)c1.COS(=O)(=O)[O-], the refractive index stood at 1.37527 ± 0.00033.

Still in this data set, the particulars now being: 303.15 K; 101.3 kPa; Liquid; Standard Abbe refractometry; x2 = 0.
In the case of `CCCCO` [butan-1-ol] + CCCCn1cc[n+](C)c1.COS(=O)(=O)[O-], the refractive index was determined as 1.39549 ± 0.00037.

As for `CO` [methanol] + CCCCn1cc[n+](C)c1.COS(=O)(=O)[O-], the refractive index came out at 1.32552 ± 0.00031.

Regarding `CCCO` [propan-1-ol] + CCCCn1cc[n+](C)c1.COS(=O)(=O)[O-], the refractive index worked out at 1.38131 ± 0.00033.

With `CC(C)O` [propan-2-ol] + CCCCn1cc[n+](C)c1.COS(=O)(=O)[O-], the refractive index was 1.37314 ± 0.00033.

Staying with this data set, now noted: 308.15 K; 101.3 kPa; Liquid; Standard Abbe refractometry; x2 = 0.
Consider `CCCCO` [butan-1-ol] + CCCCn1cc[n+](C)c1.COS(=O)(=O)[O-], for which the refractive index worked out at 1.39342 ± 0.00037.

With `CO` [methanol] + CCCCn1cc[n+](C)c1.COS(=O)(=O)[O-], the refractive index was determined as 1.32362 ± 0.00031.

With `CCCO` [propan-1-ol] + CCCCn1cc[n+](C)c1.COS(=O)(=O)[O-], the refractive index is 1.37926 ± 0.00033.

Regarding `CC(C)O` [propan-2-ol] + CCCCn1cc[n+](C)c1.COS(=O)(=O)[O-], the refractive index is recorded as 1.37093 ± 0.00033.

Staying with this data set, now noted: 313.15 K; 101.3 kPa; Liquid; Standard Abbe refractometry; x2 = 0.
Consider `CCCCO` [butan-1-ol] + CCCCn1cc[n+](C)c1.COS(=O)(=O)[O-], for which the refractive index was found to be 1.39138 ± 0.00037.

As for `CO` [methanol] + CCCCn1cc[n+](C)c1.COS(=O)(=O)[O-], the refractive index worked out at 1.32171 ± 0.00031.

Consider `CCCO` [propan-1-ol] + CCCCn1cc[n+](C)c1.COS(=O)(=O)[O-], for which the refractive index was found to be 1.37722 ± 0.00033.

Consider `CC(C)O` [propan-2-ol] + CCCCn1cc[n+](C)c1.COS(=O)(=O)[O-], for which the refractive index worked out at 1.3687 ± 0.00033.
